Tests used:
Format in all cases: in vivo
Dichromothrips corbetti = test: Action on Orchid Thrips (Dichromothrips corbetti); details: for mortality in comparison with untreated controls: 300 ppm, adults, 72 hours after treatment; for mortality at 300 ppm: Dichromothrips corbetti, 72 h, read-out: mortality in comparison with untreated controls
Protocol: Example B2: Action on Orchid Thrips (Dichromothrips corbetti)
Dichromothrips corbetti adults used for bioassay were obtained from a colony maintained continuously under laboratory conditions. For testing purposes, the test compound is diluted in a 1:1 mixture of acetone: water (vol: vol), plus Kinetic® HV at a rate of 0.01% v/v.
Thrips potency of each compound was evaluated by using a floral-immersion technique. All petals of individual, intact orchid flowers were dipped into treatment solution and allowed to dryin Petri dishes. Treated petals were placed into individual re-sealable plastic along with about 20 adult thrips. All test arenas were held under continuous light and a temperature of about 28 °C for duration of the assay. After 3 days, the numbers of live thrips were counted on each petal. The percent mortality was recorded 72 hours after treatment.

Aedes aegypti = test: whole plant or invertebrate; details: for mortality in comparison with untreated controls: 800 ppm, larvae, 2 days; for mortality at 800 ppm: Aedes aegypti, 48 h, read-out: mortality in comparison with untreated controls
Method in brief: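 Visual larval mortality was assessed 2 days after treatment (28±1 °C, 80±5% RH). Formulations of compounds or mixtures (75% water/25% DMSO) were applied by micro-atomizer onto diet of 5-15 newly hatched larvae per water-filled well, two replicates per concentration.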

Heliothis virescens = test: Action on Tobacco Budworm (Heliothis virescens); details: for mortality in comparison with untreated controls: 800 ppm, egg and larval mortality, 5 days; for mortality at 800 ppm: Heliothis virescens, 120 h, read-out: mortality in comparison with untreated controls
Method in brief: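 Eggs (15-25 per well) on diet were held 5 days at about 28±1 °C, 80±5% RH, then egg and larval mortality was scored by eye. Beforehand the diet had been sprayed with compound dilutions formulated in water/DMSO 75:25 v/v, in two replicates.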

Spodoptera eridania = test: Action on Southern Armyworm (Spodoptera eridania), 2nd Instar Larvae; details: for mortality in comparison with untreated controls: 300 ppm, 2nd instar larvae, 4 days after treatment; for mortality at 300 ppm: Spodoptera eridania, 96 h, read-out: mortality in comparison with untreated controls
Method in brief: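 2nd-instar Spodoptera eridania larvae (about 10–11 per pot) confined on sprayed, dried Lima bean plants (1st true leaf stage) in sealed bags. Spray solutions: acetone/water 1:1 plus 0.01% surfactant. Held 4 days near 25 °C, 20–40% RH; assessed for mortality and feeding reduction against untreated controls.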

Plutella xylostella [1] = test: Action on Diamond Back Moth (Plutella xylostella), microtiter plates, insect diet, eggs; details: 800 ppm; egg and larval mortality; 5 days
Method in brief: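 Diet in 96-well plates with 15–25 P. xylostella eggs, sprayed with compound formulated in 75% water/25% DMSO at several concentrations, two replicates; mixtures combined in equal volumes. Incubated 5 days at 28±1 °C, 80±5% RH, then egg and larval mortality scored visually.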

Anthonomus grandis = test: Action on Boll Weevil (Anthonomus grandis); details: for mortality in comparison with untreated controls: 800 ppm, egg and larval mortality, 5 days; for mortality at 800 ppm: Anthonomus grandis, 120 h, read-out: mortality in comparison with untreated controls
Method in brief: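 Diet in 96-well plates, seeded with 5-10 A. grandis eggs, received a spray of formulated compound (25% DMSO in water) at a range of concentrations, duplicated. Mortality of eggs and larvae was judged by eye after 5 days at about 25±1 °C, 75±5% relative humidity.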

Plutella xylostella [2] = test: Action on Diamond Back Moth (Plutella xylostella), cabbage leaf dip, 3rd instar larvae; details: for mortality in comparison with untreated controls: 300 ppm, 3rd instar larvae, 72 hours after treatment; for mortality at 300 ppm: Plutella xylostella, foliar, 72 h, read-out: mortality in comparison with untreated controls
Method in brief: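 Cabbage leaves dipped in compound solution (1:1 water:acetone, 0.01% v/v surfactant), air-dried, then infested with ten 3rd-instar larvae in petri dishes on moist filter paper. Mortality scored at 72 h after treatment; feeding damage rated on a 0–100% scale.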

Bemisia argentifolii = test: Action on Silverleaf Whitefly (Bemisia argentifolii) (Adults); details: 300 ppm, 3 days after treatment
Protocol: Example B4: Action on Silverleaf Whitefly (Bemisia argentifolii) (Adults)
The active compounds were formulated by a Tecan liquid handler in 100% cyclohexanone as a 10,000 ppm solution supplied in tubes. The 10,000 ppm solution was serially diluted in 100% cyclohexanone to make interim solutions. These served as stock solutions for which final dilutions were made by the Tecan in 50% acetone: 50% water (v/v) into 5 or 10 ml glass vials. A nonionic surfactant (Kinetic®) was included in the solution at a volume of 0.01% (v/v). The vials were then inserted into an automated electrostatic sprayer equipped with an atomizing nozzle for application to plants/insects.
Cotton plants at the cotyledon stage (one plant per pot) were sprayed by an automated electrostatic plant sprayer equipped with an atomizing spray nozzle. The plants were dried in the sprayer fume hood and then removed from the sprayer. Each pot was placed into a plastic cup and about 10 to 12 whitefly adults (approximately 3-5 days old) were introduced. The insects were collected using an aspirator and a nontoxic Tygon® tubing connected to a barrier pipette tip. The tip, containing the collected insects, was then gently inserted into the soil containing the treated plant, allowing insects to crawl out of the tip to reach the foliage for feeding. […] Mortality was assessed 3 days after treatment, compared to untreated control plants.

SMILES | mortality in comparison with untreated controls (Dichromothrips corbetti) | mortality in comparison with untreated controls (Aedes aegypti) | mortality in comparison with untreated controls (Heliothis virescens) | mortality in comparison with untreated controls (Spodoptera eridania) | mortality in comparison with untreated controls (Plutella xylostella [1]) | mortality in comparison with untreated controls (Anthonomus grandis) | mortality in comparison with untreated controls (Plutella xylostella [2]) | mortality in comparison with untreated controls (Bemisia argentifolii) | mortality at 300 ppm (Plutella xylostella [2]) [%] | mortality at 300 ppm (Dichromothrips corbetti) [%] | mortality at 800 ppm (Aedes aegypti) [%] | mortality at 800 ppm (Heliothis virescens) [%] | mortality at 300 ppm (Spodoptera eridania) [%] | mortality at 800 ppm (Anthonomus grandis) [%]
Cc1ccc(C(C)C)c(NC(=S)NC(=O)Nc2ccc(-n3nc(C)c(NC(=O)c4ccc(OC(F)(F)F)cc4)c3C)cc2Cl)c1 [Example C-125] | at least 75% | at least 50% | at least 75% | at least 75% | at least 75% | at least 75% | – | – | – | – | – | – | – | –
Cc1ccc(C(C)C)c(N2C(=O)CS/C2=N\C(=O)Nc2ccc(-n3cc(NC(=O)c4ccc(OC(F)(F)F)cc4)c(C)n3)cc2F)c1 [Example C-6] | at least 75% | at least 50% | at least 75% | at least 75% | – | at least 75% | at least 75% | at least 75% | – | – | – | – | – | –
Cc1ccc(C(C)C)c(N2C(=O)CSC2=NC(=O)Nc2ccc(-n3nc(C)c(N(CC4CC4)C(=O)c4ccc(OC(F)(F)F)cc4)c3C)cc2Cl)c1 [Example C-46] | at least 75% | at least 50% | at least 75% | at least 75% | at least 75% | at least 75% | – | – | – | – | – | – | – | –
Cc1ccc(C(C)C)c(N2C(=O)CS/C2=N\C(=O)Nc2cc(F)c(-n3nc(C)c(NC(=O)c4ccc(OC(F)(F)F)cc4)c3C)cc2Cl)c1 [Example C-104] | at least 75% | at least 50% | at least 75% | at least 75% | at least 75% | at least 75% | – | – | – | – | – | – | – | –
Cc1ccc(C(C)C)c(N/C(=N/C(=O)Nc2ccc(-n3nc(C)c(NC(=O)c4ccc(OC(F)(F)F)cc4)c3C)cc2Cl)SCOC(=O)C(C)C)c1 [Example C-130] | at least 75% | at least 50% | at least 75% | – | at least 75% | at least 75% | – | – | – | – | – | – | – | –
Cc1ccc(C(C)C)c(N2C(=O)CSC2=NC(=O)Nc2ccc(-n3nc(C)c(NC(=O)c4ccc(OC(F)(F)F)cc4)c3C)c(Cl)c2Cl)c1 [Example C-123] | at least 75% | at least 50% | at least 75% | at least 75% | at least 75% | at least 75% | – | – | – | – | – | – | – | –
Cc1ccc(C(C)C)c(N2C(=O)CS/C2=N\C(=O)Nc2ccc(-n3cc(NC(=O)c4ccc(F)c(F)c4)c(C)n3)cc2)c1 [Example C-25] | at least 75% | at least 50% | at least 75% | at least 75% | – | at least 75% | at least 75% | – | – | – | – | – | – | –
Cc1ccc(C(C)C)c(N2C(=O)CS/C2=N\C(=O)Nc2ccc(-n3nc(C)c(N(C)C(=O)c4ccc(OC(F)(F)F)cc4)c3Cl)cc2)c1 [Example C-3, N-[5-chloro-1-[4-[[(Z)-[3-(2-isopropyl-5-methyl-phenyl)-4-oxo-thiazolidin-2-ylidene]carbamoyl]amino]phenyl]-3-methyl-pyrazol-4-yl]-N-methyl-4-(trifluoromethoxy)benzamide] | – | – | – | – | – | – | – | – | ≥ 75 | ≥ 75 | ≥ 50 | ≥ 75 | ≥ 75 | ≥ 75
Cc1ccc(C(C)C)c(N2C(=O)CS/C2=N\C(=O)Nc2ccc(-n3nc(C)c(NC(=O)c4ccc(OC(F)(F)F)cc4)c3C)cc2Cl)c1 [Example C-4, N-[1-[3-chloro-4-[[(Z)-[3-(2-isopropyl-5-methyl-phenyl)-4-oxo-thiazolidin-2-ylidene]carbamoyl]amino]phenyl]-3,5-dimethyl-pyrazol-4-yl]-4-(trifluoromethoxy)benzamide] | – | – | – | – | – | – | – | – | ≥ 75 | ≥ 75 | ≥ 50 | ≥ 75 | ≥ 75 | ≥ 75
Cc1ccc(C(C)C)c(N2C(=O)CS/C2=N\C(=O)Nc2ccc(-n3nc(C)c(NC(=O)c4ccc(OC(F)(F)F)cc4)c3C)cc2C)c1 [Example C-18] | at least 75% | at least 50% | at least 75% | at least 75% | – | at least 75% | at least 75% | – | – | – | – | – | – | –
Cc1ccc(C(C)C)c(N2C(=O)CS/C2=N\C(=O)Nc2ccc(-n3nc(C)c(NC(=O)c4ccc(OC(F)(F)F)cc4)c3C)cc2OC(F)F)c1 [Example C-20] | at least 75% | at least 50% | at least 75% | at least 75% | – | at least 75% | at least 75% | – | – | – | – | – | – | –
